For experiment [1], the target named is T1, Tyrosine-protein phosphatase non-receptor type 7 (Homo sapiens, UniProt P35236).
T1 sequence (P35236 whole entry): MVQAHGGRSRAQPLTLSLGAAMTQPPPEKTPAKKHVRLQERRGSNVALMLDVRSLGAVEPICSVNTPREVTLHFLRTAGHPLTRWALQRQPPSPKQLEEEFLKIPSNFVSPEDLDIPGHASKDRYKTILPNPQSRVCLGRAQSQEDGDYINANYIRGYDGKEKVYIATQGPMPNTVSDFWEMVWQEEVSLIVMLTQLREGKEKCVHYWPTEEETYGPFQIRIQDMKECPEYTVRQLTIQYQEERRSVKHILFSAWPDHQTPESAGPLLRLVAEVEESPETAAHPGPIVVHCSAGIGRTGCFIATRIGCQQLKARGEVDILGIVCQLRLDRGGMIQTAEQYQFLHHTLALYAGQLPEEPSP
The experiment is classed as functional.

The target of experiment [2] is T2, Tyrosine-protein phosphatase non-receptor type 22 (Homo sapiens, UniProt Q9Y2R2).
T2 sequence (Q9Y2R2 whole entry): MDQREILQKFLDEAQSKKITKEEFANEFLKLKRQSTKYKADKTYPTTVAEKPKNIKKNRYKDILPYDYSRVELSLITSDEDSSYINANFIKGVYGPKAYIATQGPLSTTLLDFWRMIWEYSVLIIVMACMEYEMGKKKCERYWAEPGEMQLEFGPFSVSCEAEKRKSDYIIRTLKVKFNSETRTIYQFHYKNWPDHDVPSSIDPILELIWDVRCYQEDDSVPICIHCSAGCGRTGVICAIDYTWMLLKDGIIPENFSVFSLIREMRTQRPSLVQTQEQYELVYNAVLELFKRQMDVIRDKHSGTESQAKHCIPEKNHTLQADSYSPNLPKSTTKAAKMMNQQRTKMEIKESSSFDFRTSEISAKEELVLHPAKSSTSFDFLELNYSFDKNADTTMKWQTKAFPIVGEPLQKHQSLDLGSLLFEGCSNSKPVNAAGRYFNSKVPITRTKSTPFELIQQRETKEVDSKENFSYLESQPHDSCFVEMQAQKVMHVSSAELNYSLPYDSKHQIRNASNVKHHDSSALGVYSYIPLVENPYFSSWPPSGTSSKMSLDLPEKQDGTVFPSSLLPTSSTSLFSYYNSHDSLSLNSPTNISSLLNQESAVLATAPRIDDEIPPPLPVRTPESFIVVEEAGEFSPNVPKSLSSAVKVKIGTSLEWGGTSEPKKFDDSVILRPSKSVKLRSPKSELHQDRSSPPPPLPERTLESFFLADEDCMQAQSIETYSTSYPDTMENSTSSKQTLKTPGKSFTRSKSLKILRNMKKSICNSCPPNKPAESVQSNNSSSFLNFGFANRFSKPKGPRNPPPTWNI
The experiment is classed as functional.

The target in experiment [3] is T2, Tyrosine-protein phosphatase non-receptor type 22. The experiment is classed as functional. The source holds these as a separate data set.
Experiment [4] addresses Voltage-gated inwardly rectifying potassium channel KCNH2 (Homo sapiens, UniProt Q12809). Particulars: Potency.
Experiment [5] is described as follows: NIH-3T3 fibroblast cytotoxicity, dose response, cytotoxicity control, cell-based, fluorescence, Alamar Blue, secondary assay (AID 2327).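 Note: NIH-3T3 mouse fibroblasts cultured with fluconazole at 8 µg/mL.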 It is filed as functional. For orientation: The colour change of resazurin is a common sign of viable cells or microbes.
Experiment [6] is described as follows: inhibitors of firefly luciferase expression or activity, dose response, H4 neuroglioma cells, luminescence (AID 1990). The experiment is classed as functional, cell-based.
Experiment [7] has as its system BJ. Put plainly: cytotoxicity toward BJ-TERT fibroblasts, dose response, cell-based, RAS-independent, luminescence (AID 1933). The experiment is classed as functional. Conditions: Homo sapiens.
A short description of experiment [8]: cells. It is filed as functional, cell-based.
Experiment [9] is described as follows: Luminescence Cell-Based Dose Response HTS to Identify Inhibitors of 5'UTR Stem-Loop Driven Prion Protein mRNA Translation in H4 Neuroglioblastoma Cells. [Related pubchem assays: 1827 (Project Summary), 1813 (Primary HTS)]. The experiment is classed as functional.
Experiment [10] can be described thus: inhibitors of SNCA 5'UTR-driven reporter translation, confirmation, H4 neuroglioma cells, luminescence (AID 1988). The experiment is classed as functional, cell-based.
In experiment [11] the test system is BJ. Put plainly: cells. The experiment is classed as functional, cell-based. Conditions: Homo sapiens.
Experiment [12] is described as follows: cells. It is filed as functional, cell-based. This is another data set of the same source.
In experiment [13] the test system is BJ. Put plainly: cytotoxicity toward BJ-TERT-LT-ST fibroblasts, dose response, cell-based, RAS-independent, luminescence (AID 1935).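 Note: BJ fibroblasts immortalized with TERT plus LT and ST oncogenes.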 It is filed as functional. Particulars: Homo sapiens.
Experiment [14] in a line: cytotoxicity toward DRD oncogenic fibroblasts, dose response, cell-based, non-viral oncogenic, luminescence (AID 1934). The experiment is classed as functional. Particulars: Homo sapiens.
In experiment [15] the test system is HEK293. Put plainly: inhibitors of LMP1-driven NF-kB reporter, dose response, cell-based, HEK293, luciferase, cherry-pick (AID 588343). The experiment is classed as functional. Particulars: Homo sapiens.
Experiment [16] relates to BJ. The experiment in a line: cytotoxicity toward Ras-transformed BJeLR fibroblasts, dose response, cell-based, alamar blue fluorescence, cherrypicked samples (AID 2631).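 Note: confirmatory dose-response assay in RAS-dependent BJ fibroblasts engineered with TERT, LT and ST, with cytotoxicity read by fluorescence.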 The experiment is classed as functional. Conditions: Homo sapiens.
In a further experiment the test system is INS1. Put plainly: beta cell apoptosis inhibitors, cytokine rescue, dose response, luminescence, retest (AID 449756).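 Note: cell death triggered by IL-1 beta plus TNF-alpha plus IFN-gamma mixture; protective hits raise ATP signal compared with cytokine alone wells.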 It is filed as functional, cell-based. Particulars: Rattus norvegicus.
The target of experiment [17] is T3, Long-chain-fatty-acid--AMP ligase FadD28 (Mycobacterium tuberculosis, UniProt P9WQ59).
T3 sequence (P9WQ59 whole entry): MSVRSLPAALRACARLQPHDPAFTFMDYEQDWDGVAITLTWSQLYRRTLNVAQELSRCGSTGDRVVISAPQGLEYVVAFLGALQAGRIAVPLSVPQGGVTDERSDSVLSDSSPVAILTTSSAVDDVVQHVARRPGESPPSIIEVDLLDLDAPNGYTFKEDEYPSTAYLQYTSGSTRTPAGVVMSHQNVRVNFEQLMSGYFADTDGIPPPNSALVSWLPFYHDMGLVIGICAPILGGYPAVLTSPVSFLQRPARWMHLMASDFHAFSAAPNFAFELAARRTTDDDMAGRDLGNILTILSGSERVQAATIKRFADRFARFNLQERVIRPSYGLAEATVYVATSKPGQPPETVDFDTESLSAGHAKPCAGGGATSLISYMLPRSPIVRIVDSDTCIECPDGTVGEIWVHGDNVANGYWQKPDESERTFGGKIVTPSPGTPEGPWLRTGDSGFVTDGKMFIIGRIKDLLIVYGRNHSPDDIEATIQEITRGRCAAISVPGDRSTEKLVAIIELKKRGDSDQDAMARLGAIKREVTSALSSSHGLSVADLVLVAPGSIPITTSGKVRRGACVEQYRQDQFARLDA
Put plainly: Fluorescence polarization aasay to screen for inhibitors that compete for the binding of FadD28 to a bisubstrate Measured in Biochemical System Using Plate Reader - 2147-01_Inhibitor_Dose_CherryPick_Activity. It is filed as functional, Mycobacterium tuberculosis H37Rv. (In general: Polarisation of emitted light reports the rotation of a fluorescent probe.)

Experiment [18] in a line: insulin promoter down-regulators in MIN6 cells, imaging, high-content screening, mouse beta cells (AID 1628). It is filed as functional.
The nature of experiment [19]: cytotoxicity in MIN6 insulinoma cells, dose response, cytotoxicity control, cell-based, mouse insulinoma (AID 2122).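 Note: confirmatory high-throughput counterscreen run to flag cytotoxic compounds; mouse MIN-6 beta cells carrying an insulin promoter eGFP reporter.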 The experiment is classed as functional.
Experiment [20] has as its target T1, Tyrosine-protein phosphatase non-receptor type 7. Put plainly: HePTP (PTPN7) phosphatase inhibitor potency, SAR follow-up, biochemical, set 2 (AID 449736). The experiment is classed as functional.
Experiment [21] deals with T4, Heat shock factor protein 1 (Mus musculus, UniProt P38532).
T4 sequence (P38532 whole entry): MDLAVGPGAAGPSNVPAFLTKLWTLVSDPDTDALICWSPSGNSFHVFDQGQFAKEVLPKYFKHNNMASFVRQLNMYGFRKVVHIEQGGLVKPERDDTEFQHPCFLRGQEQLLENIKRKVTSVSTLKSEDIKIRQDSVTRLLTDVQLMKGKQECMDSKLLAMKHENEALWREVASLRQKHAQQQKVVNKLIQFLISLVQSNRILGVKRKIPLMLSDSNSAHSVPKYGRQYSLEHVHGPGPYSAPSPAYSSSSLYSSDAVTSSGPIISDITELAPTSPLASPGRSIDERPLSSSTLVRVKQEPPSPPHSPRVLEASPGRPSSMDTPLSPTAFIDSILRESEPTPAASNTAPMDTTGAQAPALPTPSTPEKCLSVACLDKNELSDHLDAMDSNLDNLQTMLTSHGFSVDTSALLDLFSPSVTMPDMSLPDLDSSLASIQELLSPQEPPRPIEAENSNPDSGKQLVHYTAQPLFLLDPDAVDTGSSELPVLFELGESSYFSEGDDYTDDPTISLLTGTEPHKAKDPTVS
The experiment in a line: HSF1 potentiators in luciferase reporter cells, confirmation, cell-based, NIH3T3, luminescence, dose retest (AID 435004).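 Note: stress induced by proteasome inhibitor MG132 added 30 min after compound; luciferase reporter driven by HSF1 response element in NIH3T3 cells; actives raise luminescence as potentiators of the MG132 stress response.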 The experiment is classed as functional. (In general: Reporter assays use an easily measured gene product as a stand-in for the process of interest.)

Another experiment concerns Jurkat. The experiment in a line: SAR Analysis of small molecule inhibitors of […] specific antigen receptor-induced NF-kB activation in a Jurkat cell line using a luminescence assay - Set 3. [Related pubchem assays (depositor defined):AID435022, AID435025, AID465]. The experiment is classed as functional, cell-based. Particulars: Homo sapiens.
The subject of experiment [22] is HEK293. Put plainly: SAR Analysis of small molecule inhibitors of B-cell specific antigen receptor-induced NF-kB activation in a HEK-293T cell line using a luminescence assay - Set 2. [Related pubchem assays (depositor defined):AID435022, AID435025, AID489021]. Particulars: Homo sapiens. It is filed as functional, cell-based.
Experiment [23] relates to HEK293. Put plainly: cytotoxicity in HEK293T NF-kB-Luc cells, SAR follow-up, cytotoxicity control for NF-kB activator project, cell-based, resazurin fluorescence (AID 493251). The experiment is classed as functional. Particulars: Homo sapiens.
Experiment [24] concerns the target E3 ubiquitin-protein ligase XIAP (Homo sapiens, UniProt P98170). Put plainly: Counter Screen using XIAP-Bir3 for Chemical Antagonists of Bir1/2 domains of IAP-family anti-apoptotic proteins. [Related pubchem assays (depositor defined):AID1018, AID1449, AID1514, AID1638, AID1749, AID1750, AID488957, AID488963].

This passage reports IC50, AC50 and EC50 results from ChEMBL document CHEMBL1201862, “PubChem BioAssay data set” (2004).

By IC50 is commonly meant the concentration that gives 50% inhibition. As a reminder, the AC50 is the concentration at which the activity in the assay is half-maximal. Usually EC50 stands for the concentration that produces a half-maximal response.

Each structure is given as a SMILES string. Counter-ions that a name gives are not always drawn. Calls of active or inactive are those of the source.

Sequence of Voltage-gated inwardly rectifying potassium channel KCNH2 (Q12809 whole entry): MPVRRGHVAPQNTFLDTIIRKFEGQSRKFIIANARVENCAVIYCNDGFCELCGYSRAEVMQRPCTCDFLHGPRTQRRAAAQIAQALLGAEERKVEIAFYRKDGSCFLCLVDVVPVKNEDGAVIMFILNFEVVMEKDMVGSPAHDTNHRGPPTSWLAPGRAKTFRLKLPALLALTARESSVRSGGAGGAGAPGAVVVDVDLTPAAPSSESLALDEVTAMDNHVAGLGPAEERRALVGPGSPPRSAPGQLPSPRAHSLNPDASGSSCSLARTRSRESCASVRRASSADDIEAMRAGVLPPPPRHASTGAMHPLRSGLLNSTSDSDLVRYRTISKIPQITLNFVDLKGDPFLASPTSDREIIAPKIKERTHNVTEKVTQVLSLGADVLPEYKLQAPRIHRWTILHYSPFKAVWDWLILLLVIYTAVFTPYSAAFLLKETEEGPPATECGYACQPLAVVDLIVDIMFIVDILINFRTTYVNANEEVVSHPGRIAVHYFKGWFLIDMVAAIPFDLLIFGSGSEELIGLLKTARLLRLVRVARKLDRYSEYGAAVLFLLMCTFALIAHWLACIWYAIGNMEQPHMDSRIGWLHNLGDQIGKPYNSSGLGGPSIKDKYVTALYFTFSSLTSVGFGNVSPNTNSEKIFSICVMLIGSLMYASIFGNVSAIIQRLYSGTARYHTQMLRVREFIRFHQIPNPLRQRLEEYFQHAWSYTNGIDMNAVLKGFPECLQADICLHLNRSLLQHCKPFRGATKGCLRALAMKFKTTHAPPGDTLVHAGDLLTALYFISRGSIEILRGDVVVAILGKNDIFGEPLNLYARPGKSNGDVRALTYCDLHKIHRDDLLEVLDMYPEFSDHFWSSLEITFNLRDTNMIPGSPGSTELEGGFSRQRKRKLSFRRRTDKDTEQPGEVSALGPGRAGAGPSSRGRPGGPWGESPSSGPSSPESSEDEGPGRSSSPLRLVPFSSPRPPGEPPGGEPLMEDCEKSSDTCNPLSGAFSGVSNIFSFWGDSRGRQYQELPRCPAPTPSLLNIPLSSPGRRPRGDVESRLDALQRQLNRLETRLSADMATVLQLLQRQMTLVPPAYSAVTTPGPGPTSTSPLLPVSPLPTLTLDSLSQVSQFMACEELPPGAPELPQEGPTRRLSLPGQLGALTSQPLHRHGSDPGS
Sequence of E3 ubiquitin-protein ligase XIAP (P98170 whole entry): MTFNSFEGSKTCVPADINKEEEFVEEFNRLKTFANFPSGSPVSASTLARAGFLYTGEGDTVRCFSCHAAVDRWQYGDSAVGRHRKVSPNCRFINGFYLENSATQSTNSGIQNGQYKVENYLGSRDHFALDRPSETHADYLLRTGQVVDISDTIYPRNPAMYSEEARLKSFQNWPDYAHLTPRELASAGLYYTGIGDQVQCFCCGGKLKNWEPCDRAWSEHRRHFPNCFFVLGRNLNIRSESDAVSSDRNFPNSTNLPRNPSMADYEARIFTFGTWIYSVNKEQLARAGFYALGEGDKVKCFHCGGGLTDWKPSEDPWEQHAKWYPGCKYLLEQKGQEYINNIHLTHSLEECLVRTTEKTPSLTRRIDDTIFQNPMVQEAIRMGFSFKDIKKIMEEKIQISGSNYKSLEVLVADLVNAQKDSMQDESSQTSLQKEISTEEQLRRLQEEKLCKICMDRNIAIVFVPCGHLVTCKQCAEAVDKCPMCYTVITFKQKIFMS

With `O=C(c1cc2cc(F)ccc2[nH]1)N1CCN(C(=O)c2ccco2)CC1`, the IC50 in [1], in experiment [2] and in experiment [3] was > 79.4 µM (inactive) each time.

Take `CC(C)COC(=O)c1ccccc1C(=O)OCC(C)C`: the half-maximal activity concentration (AC50) in experiment [4] is 35.5 µM (inconclusive).

With `CCN(CC)c1ccc(/C=N/NC(=O)c2ccc3[nH]cnc3c2)c(O)c1`, the EC50 in experiment [5] was 6.84 µM (active); in [6], 3.35 µM (active); with BJ [7] it was 4.19 µM (active); in the experiment “cells [8]” it was 8.39 µM (active); in experiment [9], 4.29 µM (active); in experiment [10], 7.51 µM (active). The concentration for a half-maximal effect (EC50) was 7.44 µM (inconclusive) in the experiment with BJ [11]; > 350 µM (not active) in “cells [12]”; 9.27 µM (active) in the experiment on BJ [13]; 4.54 µM (active) in [14]; 0.944 µM (active) in the experiment on BJ [16]. Further, the figures for the AC50 (with HEK293 [15]; in the experiment on INS1; in [17]) were 7.07 µM (active), 0.827 µM (active) and 13.1 µM (active), respectively.

Turning to `CC(Oc1ccc(Cl)cc1Cl)c1nc(-c2ccc(NC(=O)c3cccnc3)cc2)no1` (stereo not drawn), the 50% inhibitory concentration (IC50) in experiment [18] is 0.88 µM (active); in experiment [19], 0.928 µM (active). In addition, the EC50 with BJ [7] was > 150 µM (not active); with BJ [11] it was 3.32 µM (active); with BJ [13], > 150 µM (not active); in [14], 25.4 µM (active); in the experiment with BJ [16] it was > 66.7 µM (inactive). Moreover, the AC50 in the experiment with INS1 is 0.61 µM (active).

For the molecule `NS(=O)(=O)c1ccc(NC(S)=NC2CCCC2)cc1`, the IC50 in experiment [20] was 28 µM (active).

Turning to `COc1cccc(OC)c1OCCNCC1COc2ccccc2O1` (stereo not drawn) [2- (2,6-DIMETHOXYPHENOXYETHYL)AMINOMETHYL-1,4-BENZODIOXANE HYDROCHLORIDE (WB 4101)], the EC50 in [21] is > 260 µM (inactive). Besides, in experiment [4], the AC50 is 11.2 µM (inconclusive).

With `CCOc1ccc(-c2nc(CSCC(=O)NCc3cccs3)c(C)o2)cc1`, the IC50 is > 80 µM (inactive) in the experiment on Jurkat, 24.3 µM (inactive) in the experiment with HEK293 [22] and 34.8 µM (inactive) in the experiment with HEK293 [23].

On to `CCCNC(=O)CCc1nc(-c2ccc(C(C)(C)C)cc2)no1`, for which the values for the IC50 in the experiment with Jurkat, with HEK293 [22] and in the experiment with HEK293 [23] were > 80 µM (inactive), 9.19 µM (active) and > 80 µM (inactive), respectively.

As for `Cn1c(N2CCOCC2)c(/C=N/OC(=O)c2cccnc2Cl)c2ccccc21`, the 50% inhibitory concentration (IC50) in experiment [18] is 3.37 µM (active); in experiment [19], 1.4 µM (active).

Consider `Cc1ccc(C(=O)COc2ccccc2C(=O)Nc2ccccc2)cc1`, for which the IC50 in experiment [24] was > 20 µM (inactive).
